Data on five compounds can be found in ChEMBL document CHEMBL4196229, “GPR40 Receptor Agonists for the Treatment of Type 2 Diabetes and Related Diseases” (ACS Med Chem Lett, 2018).

Usually EC50 stands for the concentration needed to bring the measured effect to its halfway point.

Structures are written as SMILES.

The target in the experiment is Free fatty acid receptor 1 (Homo sapiens, UniProt O14842). Kind of experiment: Agonist activity at human GPR40 expressed in human 1321N1 cells assessed as IP1 accumulation after 1 hr by HTRF assay. In kind it is functional, cell-based. (Time-resolved FRET reads energy transfer from a long-lived donor to a nearby acceptor.)
Chain of Free fatty acid receptor 1 (O14842 whole entry): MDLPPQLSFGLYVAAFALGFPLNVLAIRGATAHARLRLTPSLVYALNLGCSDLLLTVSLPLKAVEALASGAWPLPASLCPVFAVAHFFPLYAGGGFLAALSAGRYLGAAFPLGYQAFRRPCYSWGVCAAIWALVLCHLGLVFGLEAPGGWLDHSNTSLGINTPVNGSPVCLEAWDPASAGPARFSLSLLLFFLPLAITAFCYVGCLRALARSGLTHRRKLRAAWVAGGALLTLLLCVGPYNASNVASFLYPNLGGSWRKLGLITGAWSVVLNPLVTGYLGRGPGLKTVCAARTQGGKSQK

Take `Cc1cc(-c2cccc(=O)n2C)cc(C)c1-c1ccc(F)c2c1CC[C@H]2Nc1ccc([C@H]2C[C@@H]2C(=O)O)nc1`: the EC50 came out at 4 nM. For `Cc1cc(-c2nnn(CC(C)(C)O)n2)cc(C)c1-c1ccc(F)c2c1CC[C@H]2Nc1ccc([C@H]2C[C@@H]2C(=O)O)nc1` the value was 2 nM; for `Cc1cc(OCCC(C)(C)O)cc(C)c1-c1ccc(F)c2c1CC[C@H]2Nc1ccc([C@H]2C[C@@H]2C(=O)O)nc1`, 11 nM. Then `CNC(=O)c1cc(C)c(-c2ccc(F)c3c2CC[C@H]3Nc2ccc([C@H]3C[C@@H]3C(=O)O)nc2)c(C)c1`, with 148 nM; and `Cc1cc(OCC2CCOC2)cc(C)c1-c1ccc(F)c2c1CC[C@H]2Nc1ccc([C@H]2C[C@@H]2C(=O)O)nc1` (stereo not given in full), with 7 nM.
